Measurements from a compilation of properties of binary mixtures (doi:10.1016/j.molliq.2021.118139).

Assay: xn = mol fraction of the nth substance listed
Conditions: 100 kPa

CC[N+](CC)(CC)CC.[Cl-] + OCCOCCOCCO
Conditions | electrical conductivity, 293.15 K [S/m] | electrical conductivity, 303.15 K [S/m] | electrical conductivity, 313.15 K [S/m] | electrical conductivity, 323.15 K [S/m] | electrical conductivity, 333.15 K [S/m] | viscosity, 293.15 K [mPa·s] | viscosity, 303.15 K [mPa·s] | viscosity, 313.15 K [mPa·s] | viscosity, 323.15 K [mPa·s] | viscosity, 333.15 K [mPa·s]
x1 = 0.1667 | 0.16 | 0.226 | 0.313 | 0.424 | 0.564 | 80 | 55.9 | 40 | 29.2 | 21.7
x1 = 0.25 | 0.194 | 0.276 | 0.384 | 0.524 | 0.702 | 117 | 77 | 52.1 | 36.1 | 25.6

CCCC[N+](CCCC)(CCCC)CCCC.[Cl-] + Oc1ccccc1
Conditions | electrical conductivity, 293.15 K [S/m] | electrical conductivity, 303.15 K [S/m] | electrical conductivity, 313.15 K [S/m] | electrical conductivity, 323.15 K [S/m] | electrical conductivity, 333.15 K [S/m] | viscosity, 293.15 K [mPa·s] | viscosity, 303.15 K [mPa·s] | viscosity, 313.15 K [mPa·s] | viscosity, 333.15 K [mPa·s]
x1 = 0.1667 | 0.0802 | 0.117 | 0.167 | 0.232 | 0.317 | – | – | – | –
x1 = 0.167 | – | – | – | – | – | 91.3 | 66.4 | 49.2 | 28.6
